What was measured:
[1] = target: T1, Induced myeloid leukemia cell differentiation protein Mcl-1 (Homo sapiens, UniProt Q07820); test: Binding affinity to human MCL-1 measured by competition against fluorescently labelled BH3 - Bid measured after 6 hrs by fluorescent polarization assay
HL-60 = test: Antiproliferative activity against human HL-60 cells assessed as growth inhibition measured after 72 hrs by CCK-8 assay; format: functional, cell-based; conditions: HL-60, 72 h
[2] = target: T1, Induced myeloid leukemia cell differentiation protein Mcl-1; test: Binding affinity to Mcl-1 (unknown origin) pre-incubated for 30 mins followed by addition FAM-peptide further incubated for 20 mins by fluorescence polarization-based binding assay
Bcl-2-related protein A1 = target: T2, Bcl-2-related protein A1 (Homo sapiens, UniProt Q16548); test: Binding affinity to Bfl-1 (unknown origin) pre-incubated for 30 mins followed by addition FAM-peptide further incubated for 20 mins by fluorescence polarization-based binding assay
T2 sequence (Q16548 whole entry): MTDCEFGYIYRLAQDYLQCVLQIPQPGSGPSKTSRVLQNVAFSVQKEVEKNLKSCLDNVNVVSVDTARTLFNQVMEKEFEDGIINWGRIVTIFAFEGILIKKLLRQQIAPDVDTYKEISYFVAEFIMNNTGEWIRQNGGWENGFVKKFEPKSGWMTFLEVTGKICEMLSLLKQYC

Bcl-2-like protein 1 = Bcl-2-like protein 1 (Homo sapiens, UniProt Q07817); test: Binding affinity to Bcl-xL (unknown origin) pre-incubated for 30 mins followed by addition FAM-peptide further incubated for 20 mins by fluorescence polarization-based binding assay
[3] = target: Apoptosis regulator Bcl-2 (Homo sapiens, UniProt P10415); test: Binding affinity to Bcl-2 (unknown origin) pre-incubated for 30 mins followed by addition FAM-peptide further incubated for 20 mins by fluorescence polarization-based binding assay
[4] = Metabolic stability in rat liver microsomes assessed as half life by LC-MS/MS analysis; format: ADME, Microsome; conditions: liver microsomes

T1 sequence (Q07820 whole entry): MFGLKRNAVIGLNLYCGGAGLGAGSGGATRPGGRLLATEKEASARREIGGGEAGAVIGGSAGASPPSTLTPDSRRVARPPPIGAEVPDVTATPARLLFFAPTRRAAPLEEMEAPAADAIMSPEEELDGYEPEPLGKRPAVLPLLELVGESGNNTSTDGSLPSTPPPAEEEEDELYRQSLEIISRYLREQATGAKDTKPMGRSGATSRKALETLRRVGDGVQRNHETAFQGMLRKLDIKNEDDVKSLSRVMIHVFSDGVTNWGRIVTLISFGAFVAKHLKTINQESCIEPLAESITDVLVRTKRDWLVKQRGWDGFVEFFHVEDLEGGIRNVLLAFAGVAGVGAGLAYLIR
Sequence of Apoptosis regulator Bcl-2 (P10415 whole entry): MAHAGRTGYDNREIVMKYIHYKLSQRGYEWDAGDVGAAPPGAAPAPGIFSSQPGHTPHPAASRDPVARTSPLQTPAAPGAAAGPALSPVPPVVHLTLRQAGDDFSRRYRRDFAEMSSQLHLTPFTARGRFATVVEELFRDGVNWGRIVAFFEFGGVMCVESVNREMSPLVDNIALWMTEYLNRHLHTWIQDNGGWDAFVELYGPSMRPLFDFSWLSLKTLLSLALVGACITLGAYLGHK
Sequence of Bcl-2-like protein 1 (Q07817 whole entry): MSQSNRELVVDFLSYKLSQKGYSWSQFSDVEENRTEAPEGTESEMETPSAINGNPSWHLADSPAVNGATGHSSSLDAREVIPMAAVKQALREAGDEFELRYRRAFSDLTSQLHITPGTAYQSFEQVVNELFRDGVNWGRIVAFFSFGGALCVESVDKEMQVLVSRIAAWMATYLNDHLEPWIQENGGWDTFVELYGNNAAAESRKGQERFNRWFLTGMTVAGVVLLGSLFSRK

SMILES	IC50 (HL-60)	Ki ([2]; read-out: Ki)	also measured
CC1(C)CC[C@@H](OC(=O)/C=C/c2ccccc2)C2C(C=O)C(C=O)C[C@H](O)[C@H]21 (some centres not stated)			Ki [1]: 300 nM
Cc1cc(OCCCc2c(C(=O)O)[nH]c3c(-c4c(C(=O)NCC5CC5)nn(C)c4COc4ccc(C=O)cc4)cccc23)cc(C)c1Cl	34.9 µM	180 nM	
COc1ccc(OCc2c(-c3cccc4c(CCCOc5cc(C)c(Cl)c(C)c5)c(C(=O)O)[nH]c34)c(C(=O)Nc3ccccc3F)nn2C)cc1	28.3 µM	390 nM	
Cc1cc(OCCCc2c(C(=O)O)n(CCN3CCOCC3)c3c(-c4ccccc4Cn4cc(CCNS(=O)(=O)c5ccc(F)cc5)c5ccccc54)cccc23)cc(C)c1Cl	8.91 µM	48 nM	
Cc1cc(OCCCc2c(C(=O)O)n(CCN3CCOCC3)c3c(-c4ccccc4Cn4cc(CCNC(=O)c5cccc(Br)c5)c5ccccc54)cccc23)cc(C)c1Cl	12.3 µM	87 nM	
Cc1cc(OCCCc2c(C(=O)O)n(CCN3CCOCC3)c3c(-c4ccccc4Cn4cc(CCNC(=O)c5ccc(Cl)cc5)c5ccccc54)cccc23)cc(C)c1Cl	7.58 µM	45 nM	IC50 (Bcl-2-related protein A1): > 10 µM; IC50 (Bcl-2-like protein 1): > 100 µM; IC50 [3]: > 100 µM
COc1ccc2c(ccn2Cc2ccccc2-c2cccc3c(CCCOc4cc(C)c(Cl)c(C)c4)c(C(=O)O)n(CCN4CCOCC4)c23)c1	16.1 µM	150 nM	
Cc1cc(OCCCc2c(C(=O)O)[nH]c3c(-c4ccccc4CN(C)c4ccccc4)cccc23)cc(C)c1Cl	31.9 µM	650 nM	
Cc1cc(OCCCc2c(C(=O)O)n(CCN3CCOCC3)c3c(-c4ccccc4Cn4cc(CCNC(=O)c5ccccc5C(F)(F)F)c5ccccc54)cccc23)cc(C)c1Cl	14.3 µM	56 nM	
Cc1cc(OCCCc2c(C(=O)O)n(CCN3CCOCC3)c3c(-c4ccccc4Cn4cc(CCNC(=O)c5ccccc5Br)c5ccccc54)cccc23)cc(C)c1Cl	16.8 µM	68 nM	
Cc1cc(OCCCc2c(C(=O)O)n(CCN3CCOCC3)c3c(-c4ccccc4Cn4cc(CCNC(=O)c5ccncn5)c5ccccc54)cccc23)cc(C)c1Cl	28.4 µM	120 nM	
CC(C)=CCC[C@]1(C)C=Cc2c(O)c3c(c(CC=C(C)C)c2O1)O[C@]12C(=C[C@@H]4C[C@H]1C(C)(C)O[C@@]2(C/C=C(/C)C(=O)O)C4=O)C3=O [GAMBOGIC ACID]			IC50 (Bcl-2-related protein A1): 0.5 µM; IC50 (Bcl-2-like protein 1): 0.5 µM; IC50 [3]: 0.16 µM
COc1ccc(OCc2c(-c3cccc4c(CCCOc5cc(C)c(Cl)c(C)c5)c(C(=O)O)[nH]c34)c(C(=O)N(C)CCNC(=O)OC(C)(C)C)nn2C)cc1	> 50 µM	260 nM	
Cc1cc(OCCCc2c(C(=O)O)[nH]c3c(-c4c(C(=O)NCC5CC5)nn(C)c4COc4ccc(OC(F)(F)F)cc4)cccc23)cc(C)c1Cl	32.2 µM	260 nM	
Cc1cc(OCCCc2c(C(=O)O)n(CCN3CCOCC3)c3c(-c4ccccc4Cn4cc(CCNC(=O)c5c(C)cccc5F)c5ccccc54)cccc23)cc(C)c1Cl	14.2 µM	43 nM	
Cc1cc(OCCCc2c(C(=O)O)n(CCN3CCOCC3)c3c(-c4ccccc4Cn4ccc5ccccc54)cccc23)cc(C)c1Cl	21.2 µM	150 nM	
Cc1cc(OCCCc2c(C(=O)O)[nH]c3ccccc23)cc(C)c1Cl	> 50 µM		
Cc1cc(OCCCc2c(C(=O)O)n(CCN3CCOCC3)c3c(-c4ccccc4Cn4cc(CCNC(=O)c5ccc(OC(F)(F)F)cc5)c5ccccc54)cccc23)cc(C)c1Cl	7.92 µM	29 nM	IC50 (Bcl-2-related protein A1): > 10 µM; IC50 (Bcl-2-like protein 1): > 100 µM; IC50 [3]: > 100 µM
Cc1cc(OCCCc2c(C(=O)O)[nH]c3c(-c4c(C(=O)NCC5CC5)nn(C)c4Cn4cc(C)c5ccccc54)cccc23)cc(C)c1Cl	10.5 µM	100 nM	
Cc1cc(OCCCc2c(C(=O)O)n(CCN3CCOCC3)c3c(-c4ccccc4Cn4cc(CCNC(=O)c5ccncc5F)c5ccccc54)cccc23)cc(C)c1Cl	12.6 µM	55 nM	
COc1ccccc1OCc1c(-c2cccc3c(CCCOc4cc(C)c(Cl)c(C)c4)c(C(=O)O)[nH]c23)c(C(=O)NCC2CC2)nn1C	28.8 µM	240 nM	
Cc1ccccc1C(=O)NCCc1cn(Cc2ccccc2-c2cccc3c(CCCOc4cc(C)c(Cl)c(C)c4)c(C(=O)O)n(CCN4CCOCC4)c23)c2ccccc12	10.1 µM	59 nM	
Cc1cc(OCCCc2c(C(=O)O)n(CCN3CCOCC3)c3c(-c4ccccc4Cn4cc(CCNC(=O)CC(F)(F)F)c5ccccc54)cccc23)cc(C)c1Cl	18.3 µM	60 nM	

SMILES	IC50 (HL-60)	Ki ([2]; read-out: Ki)	also measured
COc1cccc2c1ccn2Cc1ccccc1-c1cccc2c(CCCOc3cc(C)c(Cl)c(C)c3)c(C(=O)O)n(CCN3CCOCC3)c12	14.1 µM	95 nM	
Cc1cc(OCCCc2c(C(=O)O)[nH]c3c(-c4ccccc4Cn4ccc5ccccc54)cccc23)cc(C)c1Cl	44.1 µM	240 nM	
Cc1cc(OCCCc2c(C(=O)O)n(CCN3CCOCC3)c3c(-c4ccccc4Cn4cc(CCNC(=O)c5ccoc5)c5ccccc54)cccc23)cc(C)c1Cl	29.9 µM	58 nM	
Cc1cc(OCCCc2c(C(=O)O)n(CCN3CCOCC3)c3c(-c4ccccc4Cn4cc(CCNC(=O)CCC(F)(F)F)c5ccccc54)cccc23)cc(C)c1Cl	12.8 µM	98 nM	
COc1ccc(OCc2c(-c3cccc4c(CCCOc5cc(C)c(Cl)c(C)c5)c(C(=O)O)[nH]c34)c(C(=O)NCC3CC3)nn2C)cc1	30.5 µM	220 nM	
Cc1cc(OCCCc2c(C(=O)O)n(CCN3CCOCC3)c3c(-c4ccccc4Cn4cc(CCNC(=O)c5ccc(F)cc5)c5ccccc54)cccc23)cc(C)c1Cl	7.96 µM	37 nM	IC50 (Bcl-2-related protein A1): > 10 µM; IC50 (Bcl-2-like protein 1): > 100 µM; IC50 [3]: > 100 µM
Cc1cc(OCCCc2c(C(=O)O)n(CCN3CCOCC3)c3c(-c4ccccc4Cn4cc(CCNC(=O)c5ccc(Br)cc5)c5ccccc54)cccc23)cc(C)c1Cl	30.7 µM	51 nM	
C=CC(=O)NCCc1cn(Cc2ccccc2-c2cccc3c(CCCOc4cc(C)c(Cl)c(C)c4)c(C(=O)O)n(CCN4CCOCC4)c23)c2ccccc12	31.6 µM	190 nM	
COc1ccc(CN(C)C(=O)c2nn(C)c(COc3ccc(OC)cc3)c2-c2cccc3c(CCCOc4cc(C)c(Cl)c(C)c4)c(C(=O)O)[nH]c23)cc1	28 µM	530 nM	
Cc1cc(OCCCc2c(C(=O)O)n(CCN3CCOCC3)c3c(-c4ccccc4Cn4cc(CCNC(=O)/C=C/c5ccc(Cl)c(Cl)c5)c5ccccc54)cccc23)cc(C)c1Cl	> 50 µM		Ki [2]: Not Active
Cc1cc(OCCCc2c(C(=O)O)[nH]c3c(-c4c(C(=O)NCC5CC5)nn(C)c4Cn4cc(CCNC(=O)OC(C)(C)C)c5ccccc54)cccc23)cc(C)c1Cl	19.3 µM	150 nM	
Cc1ccc2c(ccn2Cc2ccccc2-c2cccc3c(CCCOc4cc(C)c(Cl)c(C)c4)c(C(=O)O)n(CCN4CCOCC4)c23)c1	39.1 µM	160 nM	
COc1ccc(OCc2c(-c3cccc4c(CCCOc5cc(C)c(Cl)c(C)c5)c(C(=O)O)[nH]c34)c(C(=O)NCC3CCOCC3)nn2C)cc1	35 µM	490 nM	
Cc1cc(OCCCc2c(C(=O)O)n(CCN3CCOCC3)c3c(-c4ccccc4Cn4ccc5c(C)cccc54)cccc23)cc(C)c1Cl	15.1 µM	120 nM	
Cc1ccc2c(ccn2Cc2c(-c3cccc4c(CCCOc5cc(C)c(Cl)c(C)c5)c(C(=O)O)[nH]c34)c(C(=O)NCC3CC3)nn2C)c1	8.82 µM	150 nM	
Cc1cc(OCCCc2c(C(=O)O)[nH]c3c(-c4c(C(=O)NCC5CC5)nn(C)c4COc4ccccc4)cccc23)cc(C)c1Cl	47.8 µM	340 nM	
COc1ccc(OCc2c(-c3cccc4c(CCCOc5cc(C)c(Cl)c(C)c5)c(C(=O)O)[nH]c34)c(C(=O)NC3CCOCC3)nn2C)cc1	21.1 µM	840 nM	
Cc1cc(OCCCc2c(C(=O)O)n(CCN3CCOCC3)c3c(-c4ccccc4Cn4cc(CCNCC(N)=O)c5ccccc54)cccc23)cc(C)c1Cl	> 50 µM	1200 nM	
O=C(O)Cc1ccccc1Nc1c(Cl)cccc1Cl [DICLOFENAC]			half-life [4]: 11.7 min
COc1cccc(OCc2c(-c3cccc4c(CCCOc5cc(C)c(Cl)c(C)c5)c(C(=O)O)[nH]c34)c(C(=O)NCC3CC3)nn2C)c1	> 50 µM	370 nM	
Cc1cc(OCCCc2c(C(=O)O)n(CCN3CCOCC3)c3c(-c4ccccc4Cn4cc(CCNC(=O)c5ccc(C=O)cc5)c5ccccc54)cccc23)cc(C)c1Cl	35.1 µM	27 nM	
Cc1cc(OCCCc2c(C(=O)O)n(CCN3CCOCC3)c3c(-c4ccccc4Cn4cc(C)c5ccccc54)cccc23)cc(C)c1Cl	15.7 µM	89 nM	

Reference: ChEMBL document CHEMBL5584309, “Discovery of Novel Mcl-1 Inhibitors with a 3-Substituted-1H-indole-1-yl Moiety Binding to the P1-P3 Pockets to Induce Apoptosis in Acute Myeloid Leukemia Cells” (J Med Chem, 2024)
